Reference: ChEMBL document CHEMBL1201862, “PubChem BioAssay data set” (2004)
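Test compounds were applied to cells in 96-well plates for 48 hours at 5 doses. GI50: concentration for 50% inhibition of growth.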 Calls of active or inactive are those of the source. No stated cut-off is given here; in the data, active = GI50 up to about 1.1 µM and inactive = higher.

What was measured:
Experiment in all cases: growth of human tumour cells (NCI), 48 h
[1] = system: SF-539
[2] = system: DU-145
[3] = system: ACHN
[4] = system: PC-3
[5] = system: RPMI-8226
[6] = system: KM12
[7] = system: HCT-116
[8] = system: OVCAR-3
[9] = system: Malme-3M
[10] = system: SK-OV-3
[11] = system: SW-620
[12] = system: LOX IMVI
[13] = system: CAKI-1
[14] = system: HL-60
[15] = system: U-251
[16] = system: NCI-H460
[17] = system: A498
[18] = system: K562
[19] = system: NCI-H226
[20] = system: HCT-15

| Compound | GI50 [1] | GI50 [2] | GI50 [3] | GI50 [4] | GI50 [5] | GI50 [6] | GI50 [7] | GI50 [8] | GI50 [9] | GI50 [10] | GI50 [11] | GI50 [12] | GI50 [13] | GI50 [14] | GI50 [15] | GI50 [16] | GI50 [17] | GI50 [18] | GI50 [19] | GI50 [20] |
| --- | --- | --- | --- | --- | --- | --- | --- | --- | --- | --- | --- | --- | --- | --- | --- | --- | --- | --- | --- | --- |
| CN1CCc2cc(N)cc3c2C1Cc1ccc2c(c1-3)OCO2 (stereo not given) | 33.9 µM (inactive) | 32.8 µM (inactive) | 26.3 µM (inactive) | 42.7 µM (inactive) | 15.9 µM (inactive) | 13.5 µM (inactive) | 27.7 µM (inactive) | 27.1 µM (inactive) | 20.9 µM (inactive) | 44.9 µM (inactive) | 31 µM (inactive) | 17.7 µM (inactive) | 41.5 µM (inactive) | 28.4 µM (inactive) | 36.8 µM (inactive) | 28.9 µM (inactive) | 49.9 µM (inactive) | 27 µM (inactive) | 34 µM (inactive) | 32.3 µM |
| C/C=C/c1cc2c(cc1O)CC[C@@H]1[C@@H]2CC[C@]2(C)[C@@H](O)CC[C@@H]12 | 0.0237 µM (active) | 0.0849 µM (active) | 0.0594 µM (active) | 2.37 µM (inactive) | 0.0264 µM (active) | 1.24 µM (inactive) | 0.022 µM (active) | 0.0193 µM (active) | 0.164 µM (active) | 0.183 µM (active) | 0.04 µM (active) | 0.0357 µM (active) | 0.0144 µM (active) | 0.0183 µM (active) | 0.0315 µM (active) | 0.0275 µM (active) | 0.146 µM (active) | 0.016 µM (active) | 0.226 µM (active) | 0.069 µM |
| O=NN(CCCl)C(=O)NC1CCC(=O)NC1=O (stereo not given) | 50.8 µM (inactive) | 337 µM (inactive) | 428 µM (inactive) | 745 µM (inactive) | 220 µM (inactive) | 212 µM (inactive) | 215 µM (inactive) | 818 µM (inactive) | 221 µM (inactive) | 526 µM (inactive) | 67.8 µM (inactive) | 48.2 µM (inactive) | 270 µM (inactive) | 66.7 µM (inactive) | 52.8 µM (inactive) | 83.8 µM (inactive) | 174 µM (inactive) | 153 µM (inactive) | 232 µM (inactive) | 300 µM |
| O=C(NCCSSCCNC(=O)/C(Cc1ccc(O)c(Br)c1)=N/O)/C(Cc1ccc(O)c(Br)c1)=N/O [PSAMMAPLIN A] | 1.72 µM (inactive) | 1.89 µM (inactive) | 1.62 µM (inactive) | 1.61 µM (inactive) | 1.36 µM (inactive) | 1.47 µM (inactive) | 1.39 µM (inactive) | 1.87 µM (inactive) | 0.597 µM (active) | 0.933 µM (active) | 1.64 µM (inactive) | 1.3 µM (inactive) | 1.47 µM (inactive) | 0.426 µM (active) | 1.1 µM (active) | 0.902 µM (active) | 2.9 µM (inactive) | 1.81 µM (inactive) | 9.82 µM (inactive) | 4.89 µM |
| Cc1cc(N(CCC#N)CCC#N)ccc1C(=N/NC(=O)c1cc(Cl)ccc1O)/N=N/c1cccc(Cl)c1 | 30.1 µM (inactive) | 18.1 µM (inactive) | 13 µM (inactive) | 10.1 µM (inactive) | 9.79 µM (inactive) | 11.2 µM (inactive) | 12.2 µM (inactive) | 3.56 µM (inactive) | 14.2 µM (inactive) | 20.6 µM (inactive) | 17.8 µM (inactive) | 11.4 µM (inactive) | 17.9 µM (inactive) | 4.48 µM (inactive) | 25.2 µM (inactive) | 6.27 µM (inactive) | 28.4 µM (inactive) | 15.7 µM (inactive) | 18.8 µM (inactive) | 6.62 µM |
| COc1cc(CN2CCCCC2)cc2cc(C(=O)O)c(=O)oc12 | > 100 µM (inactive) | > 100 µM (inactive) | > 100 µM (inactive) | > 100 µM (inactive) | > 100 µM (inactive) | > 100 µM (inactive) | > 100 µM (inactive) | > 100 µM (inactive) | > 100 µM (inactive) | > 100 µM (inactive) | > 100 µM (inactive) | > 100 µM (inactive) | > 100 µM (inactive) | > 100 µM (inactive) | > 100 µM (inactive) | > 100 µM (inactive) | > 100 µM (inactive) | > 100 µM (inactive) | > 100 µM (inactive) | > 100 µM |
| NCC#CCNCCCN1CC1 | > 100 µM (inactive) | > 100 µM (inactive) | > 100 µM (inactive) | > 100 µM (inactive) | 6.11 µM (inactive) | > 100 µM (inactive) | > 100 µM (inactive) | > 100 µM (inactive) | > 100 µM (inactive) | > 100 µM (inactive) | > 100 µM (inactive) | > 100 µM (inactive) | > 100 µM (inactive) | > 100 µM (inactive) | > 100 µM (inactive) | > 100 µM (inactive) | > 100 µM (inactive) | > 100 µM (inactive) | > 100 µM (inactive) | > 100 µM |
| CC1=NN(c2nc(N)nc(NS(=O)(=O)c3cc(C)c(Cl)cc3S)n2)C(C)(C)C1 | > 10 µM (inactive) | > 10 µM (inactive) | > 10 µM (inactive) | > 10 µM (inactive) | > 10 µM (inactive) | > 10 µM (inactive) | > 10 µM (inactive) | > 10 µM (inactive) | > 10 µM (inactive) | > 10 µM (inactive) | > 10 µM (inactive) | > 10 µM (inactive) | > 10 µM (inactive) | > 10 µM (inactive) | > 10 µM (inactive) | > 10 µM (inactive) | > 10 µM (inactive) | > 10 µM (inactive) | > 10 µM (inactive) | > 10 µM |
| Cc1cc(O)c(C(C)C)cc1CN1CCCCC1 | > 100 µM (inactive) | > 100 µM (inactive) | > 100 µM (inactive) | > 100 µM (inactive) | > 100 µM (inactive) | > 100 µM (inactive) | > 100 µM (inactive) | > 100 µM (inactive) | > 100 µM (inactive) | > 100 µM (inactive) | > 100 µM (inactive) | > 100 µM (inactive) | > 100 µM (inactive) | > 100 µM (inactive) | > 100 µM (inactive) | > 100 µM (inactive) | > 100 µM (inactive) | > 100 µM (inactive) | > 100 µM (inactive) | > 100 µM |
| Cc1cc2nc3c(C#N)c(C)c(CCCl)c(Cl)n3c2cc1C | 2.51 µM (inactive) | 3.84 µM (inactive) | 5.3 µM (inactive) | 5.6 µM (inactive) | 2.58 µM (inactive) | 6.1 µM (inactive) | 1.57 µM (inactive) | 1.75 µM (inactive) | 2.96 µM (inactive) | > 28.6 µM (inactive) | 2.34 µM (inactive) | 1.46 µM (inactive) | 2.88 µM (inactive) | 2.55 µM (inactive) | > 43.5 µM (inactive) | 5.77 µM (inactive) | 2.92 µM (inactive) | 2.39 µM (inactive) | 0.166 µM (active) | 1.87 µM |
